{"source": "ChEMBL document CHEMBL1201862", "about": "“PubChem BioAssay data set” (2004)", "key": {"[1]": {"molecular_target": "Dual specificity protein phosphatase 3 (Homo sapiens, UniProt P51452)", "sequence (P51452 whole entry)": "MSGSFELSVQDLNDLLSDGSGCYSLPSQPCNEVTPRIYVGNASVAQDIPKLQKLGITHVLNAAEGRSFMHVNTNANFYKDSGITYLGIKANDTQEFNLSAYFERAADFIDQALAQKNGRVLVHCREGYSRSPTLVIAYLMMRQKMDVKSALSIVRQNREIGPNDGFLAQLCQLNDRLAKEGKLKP", "experiment": "inhibition constants for human DUSP3 – biochemical, colorimetric, SAR follow-up (AID 2004)"}, "Tumor necrosis factor": {"molecular_target": "Tumor necrosis factor (Homo sapiens, UniProt P01375)", "sequence (P01375 whole entry)": "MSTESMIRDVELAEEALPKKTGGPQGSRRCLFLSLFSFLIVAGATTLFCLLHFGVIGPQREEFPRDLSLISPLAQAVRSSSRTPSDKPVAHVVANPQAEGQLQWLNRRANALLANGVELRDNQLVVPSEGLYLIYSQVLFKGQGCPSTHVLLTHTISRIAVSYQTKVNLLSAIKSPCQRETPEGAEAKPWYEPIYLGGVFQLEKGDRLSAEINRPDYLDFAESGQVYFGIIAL", "experiment": "analog potency on TNFa NF-kB signaling – cell-based, revised, SAR follow-up (AID 2337)", "type": "functional"}, "[2]": {"molecular_target": "T1, Heat shock factor protein 1 (Mus musculus, UniProt P38532)", "T1 sequence (P38532 whole entry)": "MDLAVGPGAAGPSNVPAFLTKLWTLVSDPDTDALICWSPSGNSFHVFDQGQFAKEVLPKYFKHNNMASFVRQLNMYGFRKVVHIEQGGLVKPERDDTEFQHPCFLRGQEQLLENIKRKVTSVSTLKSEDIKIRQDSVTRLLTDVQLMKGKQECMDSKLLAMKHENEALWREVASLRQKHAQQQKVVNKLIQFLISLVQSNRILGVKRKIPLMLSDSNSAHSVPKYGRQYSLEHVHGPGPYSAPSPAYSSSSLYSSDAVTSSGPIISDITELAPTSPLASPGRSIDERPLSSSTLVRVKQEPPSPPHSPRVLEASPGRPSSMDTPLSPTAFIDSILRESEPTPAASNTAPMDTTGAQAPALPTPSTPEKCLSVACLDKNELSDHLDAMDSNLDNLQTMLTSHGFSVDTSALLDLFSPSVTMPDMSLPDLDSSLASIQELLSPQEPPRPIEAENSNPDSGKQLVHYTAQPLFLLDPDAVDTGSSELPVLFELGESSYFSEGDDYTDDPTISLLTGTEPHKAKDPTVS", "experiment": "decrease of HSF1-responsive luciferase luminescence – cell-based, NIH3T3, dose retest, confirmation (AID 2382);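 note: NIH3T3 fibroblasts with HSF1-driven luciferase reporter stressed by proteasome inhibitor MG132; luminescence from HSF1-driven luciferase expression after 8 hours of MG132 stress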", "type": "functional"}, "H4 [3]": {"test_system": "H4", "experiment": "inhibitors of control reporter signal in H4 cells – cell-based, plate reader, dry powder samples, counter-screen for prion reporter project, dose response (AID 540255)", "type": "functional", "conditions": "Homo sapiens"}, "[4]": {"experiment": "alpha-synuclein stem-loop translation blockers – luminescence, H4 neuroglioblastoma cells, dose confirmation, confirmation (AID 2454)", "type": "functional, cell-based"}, "HEK293": {"test_system": "HEK293", "experiment": "cells", "conditions": "Homo sapiens"}, "[5]": {"experiment": "Luminescence-based counterscreen assay for KLF5 inhibitors: dose response cell-based high throughput screening assay to identify cytotoxic compounds using the IEC-6 intestinal epithelial cell line. [Related pubchem assays: 1700 (Primary screen.), 1834 (Confirmation screen.), 1858 (Summary AID.), 1905 (Counterscreen.)]", "type": "functional"}, "H4 [6]": {"test_system": "H4", "experiment": "Inhibitors of Prion Protein 5' UTR mRNA Measured in Cell-Based System Using Plate Reader - 2078-01_Inhibitor_Dose_DryPowder_Activity. [Related pubchem assays (depositor defined):AID488894]", "type": "functional", "conditions": "Homo sapiens"}, "[7]": {"experiment": "alpha-synuclein stem-loop luciferase translation blockers – H4 neuroglioma cells, luminescence, confirmation (AID 1988)", "type": "functional, cell-based"}, "[8]": {"molecular_target": "Luciferin 4-monooxygenase (Photinus pyralis, UniProt P08659)", "sequence (P08659 whole entry)": "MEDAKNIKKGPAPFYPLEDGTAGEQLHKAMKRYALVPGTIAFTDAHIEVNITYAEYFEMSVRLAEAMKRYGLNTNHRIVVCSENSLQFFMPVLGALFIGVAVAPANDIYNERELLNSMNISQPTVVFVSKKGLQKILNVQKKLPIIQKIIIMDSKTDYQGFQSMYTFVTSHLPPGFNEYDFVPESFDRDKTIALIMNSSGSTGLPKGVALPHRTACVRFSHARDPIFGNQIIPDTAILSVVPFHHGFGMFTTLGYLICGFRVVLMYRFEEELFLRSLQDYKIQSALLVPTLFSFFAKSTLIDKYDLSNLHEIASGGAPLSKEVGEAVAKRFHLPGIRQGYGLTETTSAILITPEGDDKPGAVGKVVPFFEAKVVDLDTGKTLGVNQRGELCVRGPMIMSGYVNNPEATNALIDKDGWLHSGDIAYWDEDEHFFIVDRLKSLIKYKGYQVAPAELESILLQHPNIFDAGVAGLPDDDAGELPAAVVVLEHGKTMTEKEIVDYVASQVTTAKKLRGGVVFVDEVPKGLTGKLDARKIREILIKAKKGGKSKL", "experiment": "inhibition of purified Photinus pyralis luciferase – biochemical, dry powder samples, plate reader, dose response (AID 588451)"}, "[9]": {"experiment": "reduction of Shn3 3'UTR-driven luciferase in osteoblasts – cell-based, Clone20 osteoblasts, firefly luciferase, cherry-picked, dose response (AID 624132)", "type": "functional"}, "[10]": {"experiment": "luciferase reporter signal reduction – luminescence, H4-C neuroglioblastoma cells, dose response (AID 2458);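 note: H4 neuroglioblastoma cells stably carrying a luciferase reporter gene fusion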", "type": "functional, cell-based"}, "[11]": {"experiment": "Shn3 3'UTR reporter signal decrease – cell-based, Clone20 osteoblasts, firefly luciferase, cherry-pick, set 2, Schnurri-3 inhibitor project, dose response (AID 720490)", "type": "functional"}, "[12]": {"molecular_target": "T2, Nucleotide-binding oligomerization domain-containing protein 1 (Homo sapiens, UniProt Q9Y239)", "T2 sequence (Q9Y239 whole entry)": "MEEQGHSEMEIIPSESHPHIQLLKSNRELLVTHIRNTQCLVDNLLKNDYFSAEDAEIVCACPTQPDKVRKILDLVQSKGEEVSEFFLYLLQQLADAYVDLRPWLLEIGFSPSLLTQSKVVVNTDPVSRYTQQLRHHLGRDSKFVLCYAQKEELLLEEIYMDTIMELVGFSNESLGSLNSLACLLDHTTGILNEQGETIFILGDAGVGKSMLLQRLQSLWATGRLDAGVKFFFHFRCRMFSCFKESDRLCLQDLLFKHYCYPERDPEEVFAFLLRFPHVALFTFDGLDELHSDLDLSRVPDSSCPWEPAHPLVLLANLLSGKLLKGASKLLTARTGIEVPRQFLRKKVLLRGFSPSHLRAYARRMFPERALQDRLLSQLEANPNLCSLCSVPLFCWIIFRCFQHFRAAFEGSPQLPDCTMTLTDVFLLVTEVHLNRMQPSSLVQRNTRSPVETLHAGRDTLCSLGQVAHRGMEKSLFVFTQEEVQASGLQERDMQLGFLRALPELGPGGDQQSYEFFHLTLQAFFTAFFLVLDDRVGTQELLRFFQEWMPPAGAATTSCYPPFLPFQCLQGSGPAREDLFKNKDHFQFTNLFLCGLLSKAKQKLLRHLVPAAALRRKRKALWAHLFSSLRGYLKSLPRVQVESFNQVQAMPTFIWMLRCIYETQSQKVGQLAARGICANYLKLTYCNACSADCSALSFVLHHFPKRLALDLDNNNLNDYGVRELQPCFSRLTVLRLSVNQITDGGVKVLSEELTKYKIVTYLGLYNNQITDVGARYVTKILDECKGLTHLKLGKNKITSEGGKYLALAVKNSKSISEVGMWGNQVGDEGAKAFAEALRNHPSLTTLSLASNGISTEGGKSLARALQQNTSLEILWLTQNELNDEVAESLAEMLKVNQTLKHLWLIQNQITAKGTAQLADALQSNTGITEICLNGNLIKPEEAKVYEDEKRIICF", "experiment": "blockers of NOD1 pathway activity – revised, SAR follow-up (AID 2333)", "type": "functional"}, "[13]": {"experiment": "luciferase reporter signal suppression in cells – H4 neuroglioma cells, luminescence, dose response (AID 1990)", "type": "functional, cell-based"}, "cells": {"experiment": "cells", "type": "functional, cell-based"}, "H4 [14]": {"test_system": "H4", "experiment": "Amyloid Precursor 5' UTR neuroblastoma cell reporter line Measured in Cell-Based System Using Plate Reader - 2078-04_Inhibitor_Dose_DryPowder_Activity. [Related pubchem assays (depositor defined):AID488894]", "type": "functional", "conditions": "Homo sapiens"}, "[15]": {"experiment": "Luminescence Cell-Based Dose Response HTS to Identify Inhibitors of 5'UTR Stem-Loop Driven Prion Protein mRNA Translation in H4 Neuroglioblastoma Cells. [Related pubchem assays: 1827 (Project Summary), 1813 (Primary HTS)]", "type": "functional"}, "[16]": {"molecular_target": "C-C chemokine receptor type 6 (Homo sapiens, UniProt P51684)", "sequence (P51684 whole entry)": "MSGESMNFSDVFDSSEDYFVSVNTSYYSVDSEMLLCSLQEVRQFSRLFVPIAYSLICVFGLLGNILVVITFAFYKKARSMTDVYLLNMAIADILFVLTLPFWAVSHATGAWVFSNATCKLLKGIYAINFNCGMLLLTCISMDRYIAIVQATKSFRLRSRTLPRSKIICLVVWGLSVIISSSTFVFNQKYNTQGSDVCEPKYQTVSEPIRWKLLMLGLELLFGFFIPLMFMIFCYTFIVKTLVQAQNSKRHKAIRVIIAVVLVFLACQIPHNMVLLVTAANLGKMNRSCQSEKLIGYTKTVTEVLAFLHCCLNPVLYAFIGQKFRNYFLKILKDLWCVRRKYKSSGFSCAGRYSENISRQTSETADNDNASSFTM", "experiment": "antagonism of CCR6 beta-arrestin recruitment – cell-based, luminescent beta-arrestin readout, dose response (AID 504728)", "type": "functional"}, "[17]": {"molecular_target": "T3, Endoribonuclease toxin MazF (Escherichia coli K-12, UniProt P0AE70)", "T3 sequence (P0AE70 whole entry)": "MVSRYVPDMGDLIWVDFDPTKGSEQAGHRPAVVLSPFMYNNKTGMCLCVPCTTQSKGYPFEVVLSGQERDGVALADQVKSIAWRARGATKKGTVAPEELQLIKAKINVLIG", "experiment": "substrate-only fluorescence increase artefacts – biochemical, single-stranded RNase substrate, counter-screen for MazEF activator project, dose response (AID 588502)", "type": "functional"}, "Prothrombin": {"molecular_target": "Prothrombin (Bos taurus, UniProt P00735)", "experiment": "thrombin protease inhibitors – biochemical, fluorescence polarization, uHTS hits, dose response (AID 602369)", "type": "functional"}, "[18]": {"molecular_target": "26S proteasome non-ATPase regulatory subunit 14 (Homo sapiens, UniProt O00487)", "sequence (O00487 whole entry)": "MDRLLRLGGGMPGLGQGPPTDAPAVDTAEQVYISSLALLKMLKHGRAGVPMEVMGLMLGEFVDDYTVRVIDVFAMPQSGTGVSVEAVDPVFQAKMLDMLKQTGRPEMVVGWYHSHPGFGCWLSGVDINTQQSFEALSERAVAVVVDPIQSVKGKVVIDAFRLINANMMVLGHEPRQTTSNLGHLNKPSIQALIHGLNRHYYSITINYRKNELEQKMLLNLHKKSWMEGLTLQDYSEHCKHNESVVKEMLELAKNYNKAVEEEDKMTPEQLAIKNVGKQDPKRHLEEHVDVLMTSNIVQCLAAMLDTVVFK", "experiment": "inhibition of proteasome subunit RPN11 – biochemical, fluorescence polarization, uHTS hits, confirmation (AID 602368)", "type": "functional"}, "[19]": {"molecular_target": "72 kDa type IV collagenase (Homo sapiens, UniProt P08253)", "sequence (P08253 whole entry)": "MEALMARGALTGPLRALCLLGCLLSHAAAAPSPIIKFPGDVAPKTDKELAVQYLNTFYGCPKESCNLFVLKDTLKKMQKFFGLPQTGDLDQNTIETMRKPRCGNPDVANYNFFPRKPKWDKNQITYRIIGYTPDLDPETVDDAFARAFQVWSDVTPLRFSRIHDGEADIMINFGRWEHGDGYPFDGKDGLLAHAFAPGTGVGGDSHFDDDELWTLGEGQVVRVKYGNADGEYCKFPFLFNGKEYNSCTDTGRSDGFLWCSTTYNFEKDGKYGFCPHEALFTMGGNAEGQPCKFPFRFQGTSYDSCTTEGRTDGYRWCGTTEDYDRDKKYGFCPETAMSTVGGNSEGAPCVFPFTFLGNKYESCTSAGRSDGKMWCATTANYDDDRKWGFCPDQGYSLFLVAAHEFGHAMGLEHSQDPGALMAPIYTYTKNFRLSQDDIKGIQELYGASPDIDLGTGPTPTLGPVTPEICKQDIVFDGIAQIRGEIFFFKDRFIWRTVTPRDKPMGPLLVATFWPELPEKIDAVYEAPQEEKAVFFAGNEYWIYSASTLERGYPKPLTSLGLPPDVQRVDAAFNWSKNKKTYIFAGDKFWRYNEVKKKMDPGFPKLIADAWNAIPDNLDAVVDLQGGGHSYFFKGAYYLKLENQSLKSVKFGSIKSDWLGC", "experiment": "Dose Response validation of uHTS RPN11 inhibitor hits using a MMP-2 Fluorescence assay.", "type": "functional"}, "[20]": {"molecular_target": "T3, Endoribonuclease toxin MazF", "experiment": "activation of MazEF endoribonuclease cleavage – biochemical, fluorescence, single-stranded RNA substrate, uHTS hits, dose response (AID 588481)", "type": "functional"}, "Beta-galactosidase": {"molecular_target": "Beta-galactosidase (Escherichia coli, UniProt Q8VNN2)", "sequence (Q8VNN2 whole entry)": "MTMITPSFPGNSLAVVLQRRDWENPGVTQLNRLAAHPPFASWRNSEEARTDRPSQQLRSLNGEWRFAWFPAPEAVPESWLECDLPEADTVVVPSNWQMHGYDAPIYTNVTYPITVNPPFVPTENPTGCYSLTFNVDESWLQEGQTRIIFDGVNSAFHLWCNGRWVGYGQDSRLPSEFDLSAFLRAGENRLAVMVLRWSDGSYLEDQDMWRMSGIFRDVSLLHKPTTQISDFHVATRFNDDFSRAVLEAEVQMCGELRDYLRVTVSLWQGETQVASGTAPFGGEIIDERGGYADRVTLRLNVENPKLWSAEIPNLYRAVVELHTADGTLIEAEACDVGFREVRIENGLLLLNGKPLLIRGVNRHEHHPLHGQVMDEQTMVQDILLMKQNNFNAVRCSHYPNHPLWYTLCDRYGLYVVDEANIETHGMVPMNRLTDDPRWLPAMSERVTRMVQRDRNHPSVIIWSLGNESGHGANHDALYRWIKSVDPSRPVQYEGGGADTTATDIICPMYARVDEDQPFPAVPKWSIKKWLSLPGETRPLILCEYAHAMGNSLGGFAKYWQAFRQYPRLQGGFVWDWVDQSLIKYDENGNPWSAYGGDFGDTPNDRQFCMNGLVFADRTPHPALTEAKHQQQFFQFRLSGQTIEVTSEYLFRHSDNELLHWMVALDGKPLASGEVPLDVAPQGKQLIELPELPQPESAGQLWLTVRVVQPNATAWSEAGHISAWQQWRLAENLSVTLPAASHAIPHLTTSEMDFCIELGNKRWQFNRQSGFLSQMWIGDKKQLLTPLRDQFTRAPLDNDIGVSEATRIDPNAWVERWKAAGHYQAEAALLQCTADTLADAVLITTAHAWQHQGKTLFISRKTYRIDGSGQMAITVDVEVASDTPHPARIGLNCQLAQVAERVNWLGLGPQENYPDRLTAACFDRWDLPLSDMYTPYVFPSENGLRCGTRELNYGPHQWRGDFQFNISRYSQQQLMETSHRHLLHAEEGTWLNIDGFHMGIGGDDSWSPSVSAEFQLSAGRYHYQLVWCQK", "experiment": "detection-enzyme interference by beta-gal modulators – biochemical, E. coli enzyme, set 3, artefact control for CCR6 antagonist project, dose response (AID 504712)", "type": "functional"}, "[21]": {"molecular_target": "Nucleotide-binding oligomerization domain-containing protein 2 (Homo sapiens, UniProt Q9HC29)", "sequence (Q9HC29 whole entry, the tested form may be a part)": "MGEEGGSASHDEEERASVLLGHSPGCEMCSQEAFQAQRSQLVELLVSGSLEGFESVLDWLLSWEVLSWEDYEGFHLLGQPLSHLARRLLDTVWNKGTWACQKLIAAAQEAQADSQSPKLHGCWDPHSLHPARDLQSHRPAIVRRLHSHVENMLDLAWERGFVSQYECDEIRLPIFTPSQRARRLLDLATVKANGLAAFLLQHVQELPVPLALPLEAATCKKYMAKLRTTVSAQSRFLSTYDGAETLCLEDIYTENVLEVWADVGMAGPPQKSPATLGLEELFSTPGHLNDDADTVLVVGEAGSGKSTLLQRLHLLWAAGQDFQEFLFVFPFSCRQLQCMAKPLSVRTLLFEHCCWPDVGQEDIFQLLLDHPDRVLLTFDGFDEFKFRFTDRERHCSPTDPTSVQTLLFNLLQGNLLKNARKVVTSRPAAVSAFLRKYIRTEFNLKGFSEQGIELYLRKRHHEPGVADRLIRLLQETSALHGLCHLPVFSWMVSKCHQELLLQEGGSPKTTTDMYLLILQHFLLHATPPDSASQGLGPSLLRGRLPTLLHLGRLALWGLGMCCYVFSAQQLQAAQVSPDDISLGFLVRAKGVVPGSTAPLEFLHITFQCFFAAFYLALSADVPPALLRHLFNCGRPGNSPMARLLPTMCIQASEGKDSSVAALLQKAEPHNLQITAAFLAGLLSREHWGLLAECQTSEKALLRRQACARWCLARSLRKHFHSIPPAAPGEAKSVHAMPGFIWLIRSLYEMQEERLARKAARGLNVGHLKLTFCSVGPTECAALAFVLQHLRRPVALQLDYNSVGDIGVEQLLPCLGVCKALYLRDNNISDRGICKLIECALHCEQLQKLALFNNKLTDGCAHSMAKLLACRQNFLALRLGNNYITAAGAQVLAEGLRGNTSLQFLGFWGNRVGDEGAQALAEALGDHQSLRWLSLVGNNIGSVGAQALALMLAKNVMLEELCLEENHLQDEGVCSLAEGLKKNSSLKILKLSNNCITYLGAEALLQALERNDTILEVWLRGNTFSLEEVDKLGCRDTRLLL", "experiment": "PubChem AID 2334", "type": "functional"}}, "note": "Active and inactive are the calls of the source."}
{"compound": "O=C1NC(=S)/C(=C\\c2ccc(-c3ccc([N+](=O)[O-])cc3)o2)S1", "values": [{"measurement": "Ki", "setting": "[1]", "result": "1.86 µM (active)"}]}
{"compound": "Cc1cc(C(=O)COC(=O)c2ccccc2O)c(C)n1Cc1cccs1", "values": [{"measurement": "IC50", "setting": "Tumor necrosis factor", "result": "< 0.0391 µM (active)"}, {"measurement": "EC50", "setting": "[2]", "result": "< 0.16 µM (active)"}, {"measurement": "AC50", "setting": "H4 [3]", "result": "0.066 µM (active)"}, {"measurement": "EC50", "setting": "[4]", "result": "0.159 µM (active)"}, {"measurement": "IC50", "setting": "HEK293", "result": "> 20 µM (inactive)"}, {"measurement": "IC50", "setting": "[5]", "result": "> 39.8 µM (not active)"}, {"measurement": "AC50", "setting": "H4 [6]", "result": "0.013 µM (active)"}, {"measurement": "EC50", "setting": "[7]", "result": "< 0.1 µM (active)"}, {"measurement": "AC50", "setting": "[8]", "result": "12.2 µM (active)"}, {"measurement": "AC50", "setting": "[9]", "result": "8.99 µM (active)"}, {"measurement": "EC50", "setting": "[10]", "result": "0.102 µM (active)"}, {"measurement": "AC50", "setting": "[11]", "result": "< 0.135 µM (active)"}, {"measurement": "IC50", "setting": "[12]", "result": "0.285 µM (active)"}, {"measurement": "EC50", "setting": "[13]", "result": "< 0.1 µM (active)"}, {"measurement": "EC50", "setting": "cells", "result": "0.146 µM (active)"}, {"measurement": "AC50", "setting": "H4 [14]", "result": "0.00332 µM (active)"}, {"measurement": "EC50", "setting": "[15]", "result": "< 0.1 µM (active)"}]}
{"compound": "COc1ccccc1C(=O)/N=C(\\N)Nc1nc2ccccc2o1", "values": [{"measurement": "IC50", "setting": "[16]", "result": "> 66.6 µM (inactive)"}, {"measurement": "EC50", "setting": "[17]", "result": "> 99 µM (inactive)"}, {"measurement": "IC50", "setting": "Prothrombin", "result": "60.9 µM (active)"}, {"measurement": "IC50", "setting": "[18]", "result": "38.3 µM (active)"}, {"measurement": "IC50", "setting": "[19]", "result": "> 100 µM (inactive)"}, {"measurement": "EC50", "setting": "[20]", "result": "> 99 µM (inactive)"}, {"measurement": "IC50", "setting": "Beta-galactosidase", "result": "> 66.6 µM (inactive)"}]}
{"compound": "O=C(Nc1sc2c(c1C(=O)O)CCCC2)C(=O)N1CCOCC1", "values": [{"measurement": "IC50", "setting": "Tumor necrosis factor", "result": "> 20 µM (inactive)"}, {"measurement": "IC50", "setting": "HEK293", "result": "> 20 µM (inactive)"}, {"measurement": "IC50", "setting": "[12]", "result": "> 20 µM (inactive)"}, {"measurement": "IC50", "setting": "[21]", "result": "> 20 µM (inactive)"}]}
